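Exposure lasted 48 hours, with cells grown in 96-well plates and compounds tested at five concentrations. Definition used: TGI = concentration required for complete inhibition of growth.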
How the values were obtained:
Assay in all cases: NCI tumour cell line growth inhibition, 48 h
HS 578T breast = test system: HS 578T breast
NCI-H522 lung = test system: NCI-H522 lung
MDA-MB-435 = test system: MDA-MB-435
SN12C renal = test system: SN12C renal
CCRF-CEM leukemia = test system: CCRF-CEM leukemia
IGROV1 ovarian = test system: IGROV1 ovarian
TK-10 renal = test system: TK-10 renal
SK-MEL-28 melanoma = test system: SK-MEL-28 melanoma
MDA-N = test system: MDA-N
LOX IMVI melanoma = test system: LOX IMVI melanoma
HCT-15 colon = test system: HCT-15 colon
SK-MEL-5 melanoma = test system: SK-MEL-5 melanoma
DU-145 prostate = test system: DU-145 prostate
NCI-H23 lung = test system: NCI-H23 lung
T-47D breast = test system: T-47D breast
HOP-62 NSCLC = test system: HOP-62 NSCLC
SF-539 CNS = test system: SF-539 CNS
SW-620 colon = test system: SW-620 colon
SR leukemia = test system: SR leukemia

Structure (SMILES)	TGI (HS 578T breast) [µM]	TGI (NCI-H522 lung) [µM]	TGI (MDA-MB-435) [µM]	TGI (SN12C renal) [µM]	TGI (CCRF-CEM leukemia) [µM]	TGI (IGROV1 ovarian) [µM]	TGI (TK-10 renal) [µM]	TGI (SK-MEL-28 melanoma) [µM]	TGI (MDA-N) [µM]	TGI (LOX IMVI melanoma) [µM]	TGI (HCT-15 colon) [µM]	TGI (SK-MEL-5 melanoma) [µM]	TGI (DU-145 prostate) [µM]	TGI (NCI-H23 lung) [µM]	TGI (T-47D breast) [µM]	TGI (HOP-62 NSCLC) [µM]	TGI (SF-539 CNS) [µM]	TGI (SW-620 colon) [µM]	TGI (SR leukemia) [µM]
CN1N=C(c2ccccc2)C(C(c2ccccc2[N+](=O)[O-])C2C(=O)N(C)N=C2c2ccccc2)C1=O (configuration not stated)	> 100	> 100	> 100	> 100	60.1	> 31.6	> 100	> 100	> 100	77.4	> 100	> 100	> 100	> 100	> 100	> 100	> 100	> 100	
CC(=O)C1(C)CC(C#N)(C#N)C(C#N)=C1N (configuration not stated)	> 100	> 100	> 100	> 100	> 100	> 100	> 100		> 100	> 100	> 100	> 100	> 100	> 100	> 100	> 100	> 100	> 100	> 100
CCOC(=O)CCC(NC(=O)C(N)c1ccc([N+](=O)[O-])cc1)C(=O)NC(CCC(=O)OCC)C(=O)OCC (configuration not stated)	> 100			> 100		> 100	> 100	> 100	> 100		> 100	> 100		> 100	> 100	> 100		> 100	> 100
CCCCC(/C=C\COC1CCCCO1)=C/C(=O)OCC (configuration not stated)	> 100	> 100	> 100	> 100	> 100	> 100	> 100	> 100	> 100	> 100	> 100	> 100	> 100	> 100	> 100	> 100	> 100	> 100	> 100
CC(=O)Oc1c(OC(C)C)c(C)c(O[Si](C(C)C)(C(C)C)C(C)C)c2[nH]c3ccccc3c12	> 100	> 100	> 100	> 100	> 100	> 100	> 100	> 100	> 100	> 100	> 100	> 100	> 100	> 100	> 100	> 100	> 100	> 100	99.3
Oc1cnc2c(O)cccc2c1	> 100	> 100	> 100	> 100		> 100	> 100	> 100	> 100	> 100	> 100		> 100		91.6	> 100	96.6	> 100	> 100
CCN(CC)c1ccc2cc(C(=O)NCc3ccccc3)c(=N)oc2c1	> 88	97.3	> 100	> 100	> 100	> 100	> 100	> 100	> 100	> 100	> 100	> 100	> 100	97	> 28.6	> 100	> 100	> 100	> 100
CCN(CC)C(=S)SC1C(=O)NC(=O)NC1=O	> 100	> 100	> 100	> 100	> 100	> 100	> 100	> 100	> 100	> 100	> 100	> 100	> 100	> 100	> 100	> 100	> 100	> 100	> 100
COc1ccc(NC(=O)CC(=O)NNC(Sc2ccccc2)c2cc(N=Nc3ccc(Br)cc3)ccc2O)cc1 (configuration not stated)	> 10	> 10	> 10	> 10	> 10	> 10	> 10	> 10	> 10	> 10	> 10	> 10	> 10	> 10	> 10	> 10	> 10	> 10	> 10
COc1cccc(C=C2N=C(c3ccccc3)N(n3c(-c4ccccc4)nc4ccccc4c3=O)C2=O)c1	> 100	62.1	> 100	> 100	> 100	> 100	> 100	> 100	> 100	> 100	> 100	> 100	> 100	> 100	> 100	> 100	> 100	> 100	> 100
C=C1C(=O)O[C@H]2C/C(C)=C/CC[C@]3(C)CCC[C@](C)(CC[C@@H]12)O3	48	13	15.6	34.2	3.38	14.5	18.4	15.8	> 50	> 50	> 50	13.8	> 50	27.2	25.9	> 50	20.7	17.7	22.5
COc1cc(/C=N/c2ccccn2)cc(OC)c1OC	> 100	> 100	58.6	> 100	> 100	> 100		> 100	> 59.4	> 100	> 100	> 100	> 100	> 100	> 100	> 100	> 100	> 100	> 100
Cc1cc(S(=O)(=O)Nc2n[nH]c(Nc3ccc4ccccc4c3)n2)c(S)cc1Cl	69.9	84.2	84.2	> 100	> 100	> 100	> 100	> 100	39	> 100	> 100	> 100	> 100	> 100	> 100	> 100	35.1	> 100	> 100
CC(C)[Si]1(C(C)C)OCC2OC(n3c(C(=O)c4ccccc4)cc(=O)[nH]c3=O)CC2O[Si](C(C)C)(C(C)C)O1 (configuration not stated)	5.5	3.55	10.4	5.5	5.12	10.1	9.23	15	11.7	3.93	7.89	14	24.6	6.13	16	21.3	8.6	8.32	> 23.8
NC(=O)NNCc1c(-c2ccccc2)no[n+]1[O-]	> 100	> 100	> 100	> 100	> 100	> 100	> 100	> 100	> 100	> 100	> 100	> 100	> 100	> 100	> 100	> 100	> 100	> 100	> 100
COc1cc(C2c3[nH]c4ccccc4c3[C@@H](Nc3ccc(C#N)cc3)[C@H]3COC(=O)N23)cc(OC)c1O (some centres not stated)	2.49	0.547	2.19	0.625	0.404	3	0.866	2.73	1.57	0.681	5.56	0.321	0.839	2.55	3.5	1.54	0.208	1.49	0.059
CCOC(=O)c1sc2c(c1O)c(=O)n(-c1ccccc1)c(=S)n2-c1ccccc1	> 100	> 100	> 100	> 100	> 100	> 100	> 100	> 100	> 100	> 100	> 100	> 100	> 100	> 100	> 100			> 100	46.9
CN=C(N)N=Nc1c(O)[nH]c2ccccc12	> 100	> 100	> 100	> 100	> 100	> 100	> 100	> 100	> 100	> 100	> 100	> 100	> 100	> 100	> 100	> 100		> 100	> 100
NC(=O)c1nnsc1NN=O	> 100	> 100	> 100	> 100	> 100	> 100		> 100	> 100	> 100	> 100	> 100	> 100	> 100	> 100	> 100	> 100	> 100	> 100
CCCC(C)NC(=O)c1ccc(N(C)Cc2cnc3nc(N)nc(N)c3n2)cc1 (configuration not stated)	44.2		48.2	> 100	> 100	> 100	86.1	42.3	> 100	82.6	> 100	37.4	> 100	> 100	53.9	89.4	32.3	> 100	> 100
Cc1cccc(/C=N\NC(=S)N2CCCCC2)n1	> 100	> 100	> 100	9.38	0.225	0.0702		> 100	> 100	41.6	> 100	0.187	> 100	> 100	> 100	0.525		> 100	0.123
CCOC(=O)N(C)C(=C(F)F)C(F)(F)F	> 100		46.2		75.8	62.4	97.8	> 100	40.2	85.5	34.3	30	> 100	69.8	92.1	68.9	78.3	67.9	20.9
COc1cc(COC(=O)N2CC=CC2C(=O)O)c([N+](=O)[O-])cc1OC (configuration not stated)	> 100		> 100	> 100	> 100	> 100	> 100	> 100	> 100		> 100	> 100	> 100	> 100	> 100	> 100	> 100	> 100	> 100
CCOC(=O)[C@@H]1ON2O[C@H](OC3CCCCC3c3ccccc3)C[C@H]3OC(=O)[C@@H]1C32 (some centres not stated)	> 100	> 100	> 100	> 100	0.614	> 100	> 100		> 100	> 100	> 100	> 100	> 100	> 100	> 100	> 100	> 100	> 100	> 100
CCCCOCOc1ccccc1P1(=O)COc2ccccc2OC1	> 100		> 100	> 100	> 100	> 100	94.1	> 100	> 100	> 100	> 100	> 100	> 100	> 100	> 100	> 100	> 100	> 100	> 100
NS(=O)(=O)c1nnc(NC(=O)c2cccc([N+](=O)[O-])c2)s1	> 100	> 100	> 100	> 100			> 100	> 100	> 100	> 100	> 100	> 100	> 100	> 100	> 100	> 100	> 100	> 100	> 100

— PubChem BioAssay (NCI)
